Drawing on ChEMBL document CHEMBL1133822, “Studies on 3-deoxy-D-manno-octulosonic acid 8-phosphate synthase using chorismate mutase inhibitors” (Bioorg Med Chem Lett, 2001), this text covers IC50, K inact and Ki for seven compounds.

A value given as a limit tells only on which side of the number the result lay.

A short description of assay [1]: Inhibitory concentration against KDO 8-P synthase.
Assay [2] can be described thus: kinact was determined.
Assay [3] is described as follows: Binding affinity constant against KDO 8-P synthase.
Assay [4] in a line: Inhibitory concentration against Chorismate mutase. The arrangement: species or system Bacillus subtilis.

For `CC1(C(=O)[O-])CCC(C(=O)[O-])C1(C)C.[Na+].[Na+]` (stereo not given), in assay [1], the half-maximal inhibitory concentration (IC50) – broadly, the concentration at which inhibition is half-maximal – is greater than 1000 µM. As to `O=C(O)C1=C(C(=O)O)C2C=CC1[C@@H]1C(C(=O)O)[C@H]21` (stereo not given in full), in assay [1], the IC50 is greater than 500 µM.

In turn, `O=C(O)C1C2C=CC(C3CC23)C1C(=O)O` (stereo not given) displayed an IC50 in assay [1] greater than 1000 µM. The compound `O=C(O)C12CCC(C(=O)O)(CC1=O)C(=O)C2` displayed an IC50 in assay [1] greater than 1000 µM.

Consider `CCCC/N=C(\S)C(O)C(O)C(O)C(O)CO` (stereo not given), for which, in assay [1], it took 400 µM to reach half-maximal inhibition (IC50). The K inact in assay [2] came out at 0.01. Moreover, in assay [3], the Ki (as a rule, a dissociation constant, usually derived from enzyme kinetics or from competition with a known ligand) came to 2300 µM. In assay [1], `O=C(O)C1C2C=CC(CCC2)C1C(=O)O` (stereo not given) yielded a 50% inhibitory concentration (IC50) greater than 1000 µM.

As to `O=C(O)CC1(O)CCCCC1`, the values for the half-maximal inhibitory concentration (IC50) in assay [4] and in assay [1] were 350 µM and greater than 1000 µM, respectively.
